Results: patent publication US7750003B2, “Compounds-943” (AstraZeneca AB, priority 2006, dated 2010)

These compounds were tested against recombinant mTOR (FLAG-tagged, residues 1362-2549) (Homo sapiens, UniProt P42345) (assay: In vitro mTOR kinase assay (Test (a), AlphaScreen)). Conditions: ATP 20 μM, read-out: Test (a): IC50 versus mTOR kinase.
Type: biochemical
How it was run: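 AlphaScreen read-out: a phospho-T389 p70 S6K antibody on acceptor beads captures the phosphorylated biotin-peptide on donor beads, with signal loss indicating inhibition.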

recombinant mTOR (FLAG-tagged, residues 1362-2549), sequence (P42345 1362-2549): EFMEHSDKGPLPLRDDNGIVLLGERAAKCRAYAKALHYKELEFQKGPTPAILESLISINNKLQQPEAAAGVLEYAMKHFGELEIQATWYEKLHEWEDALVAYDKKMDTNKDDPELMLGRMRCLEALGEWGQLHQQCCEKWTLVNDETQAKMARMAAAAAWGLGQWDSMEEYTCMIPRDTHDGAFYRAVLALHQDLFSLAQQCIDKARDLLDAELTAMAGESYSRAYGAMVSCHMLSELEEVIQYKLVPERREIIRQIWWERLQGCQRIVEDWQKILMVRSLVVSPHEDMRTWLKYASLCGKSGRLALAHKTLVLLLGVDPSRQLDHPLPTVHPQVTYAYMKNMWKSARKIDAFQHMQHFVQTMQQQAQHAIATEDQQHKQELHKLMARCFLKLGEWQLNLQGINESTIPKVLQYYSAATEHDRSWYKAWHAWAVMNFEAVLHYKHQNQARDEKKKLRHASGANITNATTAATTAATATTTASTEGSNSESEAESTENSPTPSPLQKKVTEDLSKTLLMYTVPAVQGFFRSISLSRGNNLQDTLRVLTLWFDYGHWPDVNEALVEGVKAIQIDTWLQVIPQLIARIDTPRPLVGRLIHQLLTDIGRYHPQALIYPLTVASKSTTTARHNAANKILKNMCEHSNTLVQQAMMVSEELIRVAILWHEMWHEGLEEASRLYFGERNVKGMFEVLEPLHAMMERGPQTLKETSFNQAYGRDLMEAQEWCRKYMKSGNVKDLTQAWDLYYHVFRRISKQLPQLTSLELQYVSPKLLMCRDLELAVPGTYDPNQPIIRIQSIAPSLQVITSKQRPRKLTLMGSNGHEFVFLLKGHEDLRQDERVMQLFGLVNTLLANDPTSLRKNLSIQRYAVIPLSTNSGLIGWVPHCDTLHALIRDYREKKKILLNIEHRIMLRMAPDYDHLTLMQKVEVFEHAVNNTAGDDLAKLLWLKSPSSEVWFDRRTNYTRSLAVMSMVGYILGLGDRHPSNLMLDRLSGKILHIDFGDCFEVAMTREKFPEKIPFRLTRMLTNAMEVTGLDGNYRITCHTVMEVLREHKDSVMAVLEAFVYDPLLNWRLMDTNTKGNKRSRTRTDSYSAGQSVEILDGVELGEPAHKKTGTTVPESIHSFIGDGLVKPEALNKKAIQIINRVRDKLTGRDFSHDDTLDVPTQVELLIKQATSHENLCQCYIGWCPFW

Compared with C[C@H]1COCCN1c1cc(C(C)(C)S(C)(=O)=O)nc(-c2ccc(NC(=O)Nc3ccc(F)cn3)cc2)n1 [Example 24y, 3-(5-fluoropyridin-2-yl)-1-[4-[4-[(3S)-3-methylmorpholin-4-yl]-6-(2-methylsulfonylpropan-2-yl)pyrimidin-2-yl]phenyl]urea], CNC(=O)Nc1ccc(-c2nc(CS(=O)(=O)c3ccccc3OC)cc(N3CCOC[C@@H]3C)n2)cc1 [Example 33b, 1-[4-[4-[(2-methoxyphenyl)sulfonylmethyl]-6-[(3S)-3-methylmorpholin-4-yl]pyrimidin-2-yl]phenyl]-3-methyl-urea] is 33-fold lower in IC50: 2.2 µM for the first, 0.066 µM for the second.

Compared with C[C@H]1COCCN1c1cc(C(C)(C)S(C)(=O)=O)nc(-c2cnc(NC(=O)NCc3cnn(C)c3)nc2)n1 [Example 24z, 1-[5-[4-[(3S)-3-methylmorpholin-4-yl]-6-(2-methylsulfonylpropan-2-yl)pyrimidin-2-yl]pyrimidin-2-yl]-3-[(1-methylpyrazol-4-yl)methyl]urea], CNC(=O)Nc1ccc(-c2nc(CS(=O)(=O)c3nccn3C)cc(N3CCOC[C@@H]3C)n2)cc1 [Example 33, 3-Methyl-1-[4-[4-[(1-methylimidazol-2-yl)sulfonylmethyl]-6-[(3S)-3-methylmorpholin-4-yl]pyrimidin-2-yl]phenyl]urea] is 2.3-fold higher in IC50: 0.37 µM for the first, 0.84 µM for the second. The first is the more potent here.

Going from C[C@H]1COCCN1c1cc(CS(C)(=O)=O)nc(-n2ccc(NC(=O)Nc3ccccc3)n2)n1 [Example 25, 1-[1-[4-[(3S)-3-Methylmorpholin-4-yl]-6-(methylsulfonylmethyl)pyrimidin-2-yl]pyrazol-3-yl]-3-phenyl-urea] to C[C@H]1COCCN1c1cc(CS(C)(=O)=O)nc(-n2ccc(NC(=O)Nc3ccc(F)cc3)n2)n1 [Example 25b, 3-(4-fluorophenyl)-1-[1-[4-[(3S)-3-methylmorpholin-4-yl]-6-(methylsulfonylmethyl)pyrimidin-2-yl]pyrazol-3-yl]urea], the IC50 rises from 1.9 µM to 4.4 µM (2.3-fold).

First: COc1ccc(NC(=O)Nc2ccn(-c3nc(CS(C)(=O)=O)cc(N4CCOC[C@@H]4C)n3)n2)cc1 [Example 25a, 3-(4-methoxyphenyl)-1-[1-[4-[(3S)-3-methylmorpholin-4-yl]-6-(methylsulfonylmethyl)pyrimidin-2-yl]pyrazol-3-yl]urea]
Second: CNC(=O)Nc1ccc(-c2nc(CS(=O)(=O)c3ncc[nH]3)cc(N3CCOC[C@@H]3C)n2)cc1 [Example 33c, 1-[4-[4-(1H-imidazol-2-ylsulfonylmethyl)-6-[(3S)-3-methylmorpholin-4-yl]pyrimidin-2-yl]phenyl]-3-methyl-urea]
The IC50 of the first is 3100-fold higher: 4.4 µM for the first, 0.0014 µM for the second. The second is the more potent here.

CNC(=O)CS(=O)(=O)Cc1cc(N2CCOC[C@@H]2C)nc(-c2ccc(NC(=O)NC)cc2)n1 [Example 26, N-Methyl-2-[[2-[4-(methylcarbamoylamino)phenyl]-6-[(3S)-3-methylmorpholin-4-yl]pyrimidin-4-yl]methylsulfonyl]acetamide] and CNC(=O)Nc1ccc(-c2nc(CS(=O)(=O)CC(N)=O)cc(N3CCOC[C@@H]3C)n2)cc1 [Example 26a, 2-[[2-[4-(methylcarbamoylamino)phenyl]-6-[(3S)-3-methylmorpholin-4-yl]pyrimidin-4-yl]methylsulfonyl]acetamide] are within 1.5-fold of each other in IC50: 0.029 µM for the first, 0.037 µM for the second.

Compared with CNC(=O)Nc1ccc(-c2nc(CS(=O)(=O)CCNC(C)=O)cc(N3CCOC[C@@H]3C)n2)cc1 [Example 26b, N-[2-[[2-[4-(methylcarbamoylamino)phenyl]-6-[(3S)-3-methylmorpholin-4-yl]pyrimidin-4-yl]methylsulfonyl]ethyl]acetamide], CNC(=O)Nc1ccc(-c2nc(CS(=O)(=O)c3ccc(N)cc3)cc(N3CCOC[C@@H]3C)n2)cc1 [Example 33d, 1-[4-[4-[(4-aminophenyl)sulfonylmethyl]-6-[(3S)-3-methylmorpholin-4-yl]pyrimidin-2-yl]phenyl]-3-methyl-urea] is 130-fold lower in IC50: 0.041 µM for the first, 0.00031 µM for the second. The second is the more potent here.

Going from C[C@H]1COCCN1c1cc(CN2CCOCC2)nc(-c2ccc(NC(=O)Nc3ccccc3)cc2)n1 [Example 27, 1-[4-[4-[(3S)-3-Methylmorpholin-4-yl]-6-(morpholin-4-ylmethyl)pyrimidin-2-yl]phenyl]-3-phenyl-urea] to C[C@H]1COCCN1c1cc(CN2CCN(C)CC2)nc(-c2ccc(NC(=O)Nc3ccccc3)cc2)n1 [Example 30a, 1-[4-[4-[(3S)-3-methylmorpholin-4-yl]-6-[(4-methylpiperazin-1-yl)methyl]pyrimidin-2-yl]phenyl]-3-phenyl-urea], the IC50 falls from 0.19 µM to 0.12 µM (1.6-fold).

Going from C[C@H]1COCCN1c1cc(COc2ccccc2)nc(-c2ccc(NC(=O)Nc3ccccc3)cc2)n1 [Example 28, 1-[4-[4-[(3S)-3-Methylmorpholin-4-yl]-6-(phenoxymethyl)pyrimidin-2-yl]phenyl]-3-phenyl-urea] to C[C@H]1COCCN1c1cc(CNc2ccccc2)nc(-c2ccc(NC(=O)Nc3ccccc3)cc2)n1 [Example 30, 1-[4-[4-(Anilinomethyl)-6-[(3S)-3-methylmorpholin-4-yl]pyrimidin-2-yl]phenyl]-3-phenyl-urea], the IC50 falls from 4.7 µM to 0.9 µM (5.2-fold).

Compared with C[C@H]1COCCN1c1cc(CS(=O)(=O)C2CCNC2=O)nc(-c2ccc(NC(=O)Nc3ccccc3)cc2)n1 (stereo partly drawn) [Example 29, 1-[4-[4-[(3S)-3-Methylmorpholin-4-yl]-6-[(2-oxopyrrolidin-3-yl)sulfonylmethyl]pyrimidin-2-yl]phenyl]-3-phenyl-urea], C[C@H]1COCCN1c1cc(CNC2CC2)nc(-c2ccc(NC(=O)Nc3ccccc3)cc2)n1 [Example 30b, 1-[4-[4-[(cyclopropylamino)methyl]-6-[(3S)-3-methylmorpholin-4-yl]pyrimidin-2-yl]phenyl]-3-phenyl-urea] is 3.1-fold lower in IC50: 0.56 µM for the first, 0.18 µM for the second.

Compared with C[C@H]1COCCN1c1cc(CNC2CCN(C)CC2)nc(-c2ccc(NC(=O)Nc3ccccc3)cc2)n1 [Example 30c, 1-[4-[4-[(3S)-3-methylmorpholin-4-yl]-6-[[(1-methyl-4-piperidyl)amino]methyl]pyrimidin-2-yl]phenyl]-3-phenyl-urea], C[C@H]1COCCN1c1cc(COC2CCN(C)CC2)nc(-c2ccc(NC(=O)Nc3ccccc3)cc2)n1 [Example 31, 1-[4-[4-[(3S)-3-Methylmorpholin-4-yl]-6-[(1-methyl-4-piperidyl)oxymethyl]pyrimidin-2-yl]phenyl]-3-phenyl-urea] is 3.1-fold lower in IC50: 1.1 µM for the first, 0.35 µM for the second.

Going from C[C@H]1COCCN1c1cc(CN(C)C2CC2)nc(-c2ccc(NC(=O)Nc3ccccc3)cc2)n1 [Example 30d, 1-[4-[4-[(cyclopropyl-methyl-amino)methyl]-6-[(3S)-3-methylmorpholin-4-yl]pyrimidin-2-yl]phenyl]-3-phenyl-urea] to COCc1cc(N2CCOC[C@@H]2C)nc(-c2ccc(NC(=O)Nc3ccccc3)cc2)n1 [Example 32, 1-[4-[4-(Methoxymethyl)-6-[(3S)-3-methylmorpholin-4-yl]pyrimidin-2-yl]phenyl]-3-phenyl-urea], the IC50 falls from 0.28 µM to 0.0062 µM (45-fold). The second is the more potent here.

CNC(=O)Nc1ccc(-c2nc(CS(=O)(=O)c3ccccc3Cl)cc(N3CCOC[C@@H]3C)n2)cc1 [Example 33a, 1-[4-[4-[(2-chlorophenyl)sulfonylmethyl]-6-[(3S)-3-methylmorpholin-4-yl]pyrimidin-2-yl]phenyl]-3-methyl-urea] and CNC(=O)Nc1ccc(-c2nc(CS(=O)(=O)c3ccccc3C)cc(N3CCOC[C@@H]3C)n2)cc1 [Example 33e, 3-methyl-1-[4-[4-[(3S)-3-methylmorpholin-4-yl]-6-[(2-methylphenyl)sulfonylmethyl]pyrimidin-2-yl]phenyl]urea] are within 1.5-fold of each other in IC50: 0.06 µM for the first, 0.088 µM for the second.
